Source: article PMC5602531, “Purification and characterisation of the yeast plasma membrane ATP binding cassette transporter Pdr11p” (PLoS ONE, 2017)

Key:
Format in all cases: biochemical
Pdr11p [1] = target: T1, Pdr11p (Saccharomyces cerevisiae, UniProt P40550); experiment: radiolabelled ATPase assay, dose-response with purified protein
T1 construct: gene PDR11; N-terminal FLAG-tagged Pdr11p, purified in DDM
T1 sequence (P40550 1-1411): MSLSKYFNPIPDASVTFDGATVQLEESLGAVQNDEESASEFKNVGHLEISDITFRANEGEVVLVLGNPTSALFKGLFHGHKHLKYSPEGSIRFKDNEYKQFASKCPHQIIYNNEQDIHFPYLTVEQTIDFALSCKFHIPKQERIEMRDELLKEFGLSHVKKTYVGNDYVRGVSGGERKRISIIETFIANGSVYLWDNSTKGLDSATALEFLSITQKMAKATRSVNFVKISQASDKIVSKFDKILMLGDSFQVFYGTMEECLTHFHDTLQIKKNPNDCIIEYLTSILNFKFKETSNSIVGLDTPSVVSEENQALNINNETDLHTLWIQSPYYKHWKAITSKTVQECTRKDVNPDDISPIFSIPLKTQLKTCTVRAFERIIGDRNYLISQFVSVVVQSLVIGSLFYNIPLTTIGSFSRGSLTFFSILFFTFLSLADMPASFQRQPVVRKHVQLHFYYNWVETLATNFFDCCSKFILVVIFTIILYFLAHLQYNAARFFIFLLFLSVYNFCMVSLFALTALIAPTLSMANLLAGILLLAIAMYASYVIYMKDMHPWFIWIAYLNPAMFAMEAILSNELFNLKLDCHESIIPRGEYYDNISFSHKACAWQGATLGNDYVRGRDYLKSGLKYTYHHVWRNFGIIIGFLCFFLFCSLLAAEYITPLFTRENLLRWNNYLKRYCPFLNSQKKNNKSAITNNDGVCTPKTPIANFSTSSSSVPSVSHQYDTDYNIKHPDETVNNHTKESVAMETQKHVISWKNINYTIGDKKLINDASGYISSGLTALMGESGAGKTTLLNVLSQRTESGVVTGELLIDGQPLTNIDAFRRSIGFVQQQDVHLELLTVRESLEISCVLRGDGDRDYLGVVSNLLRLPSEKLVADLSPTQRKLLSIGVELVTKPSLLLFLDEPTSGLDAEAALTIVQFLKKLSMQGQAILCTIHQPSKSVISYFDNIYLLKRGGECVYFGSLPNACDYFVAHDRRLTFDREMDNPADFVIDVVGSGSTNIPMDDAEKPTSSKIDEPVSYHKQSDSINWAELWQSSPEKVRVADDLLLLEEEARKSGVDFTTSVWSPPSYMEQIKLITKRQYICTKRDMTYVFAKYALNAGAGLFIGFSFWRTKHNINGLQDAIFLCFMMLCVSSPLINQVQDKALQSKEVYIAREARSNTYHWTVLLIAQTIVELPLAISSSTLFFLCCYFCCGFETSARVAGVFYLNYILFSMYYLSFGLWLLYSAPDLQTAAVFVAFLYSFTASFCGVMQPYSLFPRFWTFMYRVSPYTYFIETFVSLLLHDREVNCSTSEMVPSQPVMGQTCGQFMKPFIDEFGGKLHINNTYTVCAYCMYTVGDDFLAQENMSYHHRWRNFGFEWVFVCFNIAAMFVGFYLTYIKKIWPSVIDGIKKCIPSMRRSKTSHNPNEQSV

Aus1p = target: T2, Aus1p (Saccharomyces cerevisiae, UniProt Q08409); experiment: radiolabelled ATPase assay with liposome-reconstituted protein
T2 construct: gene AUS1; FLAG-tagged Aus1p, purified and reconstituted in liposomes
T2 sequence (Q08409 1-1394): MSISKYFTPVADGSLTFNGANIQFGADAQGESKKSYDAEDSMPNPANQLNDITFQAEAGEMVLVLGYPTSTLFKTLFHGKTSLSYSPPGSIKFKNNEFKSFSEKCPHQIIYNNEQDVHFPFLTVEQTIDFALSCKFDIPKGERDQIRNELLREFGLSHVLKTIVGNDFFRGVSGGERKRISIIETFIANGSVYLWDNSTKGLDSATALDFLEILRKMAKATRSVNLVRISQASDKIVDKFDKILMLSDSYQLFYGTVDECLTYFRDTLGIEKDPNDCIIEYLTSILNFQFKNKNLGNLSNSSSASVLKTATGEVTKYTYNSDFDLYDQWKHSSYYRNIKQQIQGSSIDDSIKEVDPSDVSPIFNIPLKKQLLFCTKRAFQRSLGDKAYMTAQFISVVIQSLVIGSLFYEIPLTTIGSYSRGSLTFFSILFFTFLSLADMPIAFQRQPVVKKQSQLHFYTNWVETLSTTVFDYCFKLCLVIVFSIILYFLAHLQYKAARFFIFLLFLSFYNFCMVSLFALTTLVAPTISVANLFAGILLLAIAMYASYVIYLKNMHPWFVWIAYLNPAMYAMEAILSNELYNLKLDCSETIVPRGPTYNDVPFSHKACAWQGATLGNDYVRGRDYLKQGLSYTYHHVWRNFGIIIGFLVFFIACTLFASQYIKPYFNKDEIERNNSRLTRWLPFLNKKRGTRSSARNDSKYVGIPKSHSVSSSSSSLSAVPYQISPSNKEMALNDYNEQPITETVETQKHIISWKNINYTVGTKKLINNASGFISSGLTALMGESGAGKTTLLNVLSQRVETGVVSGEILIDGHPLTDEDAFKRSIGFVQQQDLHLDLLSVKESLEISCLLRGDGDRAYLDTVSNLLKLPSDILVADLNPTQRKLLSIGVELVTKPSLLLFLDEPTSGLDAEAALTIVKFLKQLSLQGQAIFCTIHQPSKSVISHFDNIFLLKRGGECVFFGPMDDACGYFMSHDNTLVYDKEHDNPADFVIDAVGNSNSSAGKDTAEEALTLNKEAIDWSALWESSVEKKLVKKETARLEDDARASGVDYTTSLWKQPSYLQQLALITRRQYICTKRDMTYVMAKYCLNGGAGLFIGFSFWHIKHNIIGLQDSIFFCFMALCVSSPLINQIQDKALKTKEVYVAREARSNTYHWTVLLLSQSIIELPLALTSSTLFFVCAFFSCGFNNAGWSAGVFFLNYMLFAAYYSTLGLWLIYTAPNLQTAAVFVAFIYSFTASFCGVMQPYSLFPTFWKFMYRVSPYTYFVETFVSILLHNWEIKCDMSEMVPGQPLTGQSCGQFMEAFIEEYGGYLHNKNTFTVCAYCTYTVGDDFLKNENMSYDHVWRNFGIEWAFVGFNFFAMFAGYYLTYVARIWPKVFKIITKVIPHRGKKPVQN

Pdr11p [2] = target: T1, Pdr11p; experiment: radiolabelled ATPase assay (release of inorganic phosphate) with purified protein
Pdr11p [3] = target: T1, Pdr11p; experiment: radiolabelled ATPase assay with purified protein, […] AlF3

[O]=[V]([OH])([OH])[OH] [orthovanadate]
IC50 (Pdr11p [1]): 4 ± 2 mM

Nc1ncnc2c1ncn2[C@@H]1O[C@H](COP(=O)(O)OP(=O)(O)OP(=O)(O)O)[C@@H](O)[C@H]1O [ATP]
radiolabelled ATPase assay with liposome-reconstituted protein (Aus1p): Purified Pdr11p and Aus1p were reconstituted into different liposomes (containing Rho-PE as fluorescent lipid marker) and assayed for ATPase activity | radiolabelled ATPase assay (release of inorganic phosphate) with purified protei (Pdr11p [2]): ~ 60 ± 24 nmol of ATP/min/mg of protein

[F][Al]([F])[F] [aluminium fluoride]
radiolabelled ATPase assay with purified protein, 1 mM AlF3 (Pdr11p [3]): strongly inhibited by the classical inhibitors of ABC proteins beryllium fluoride and aluminium fluoride (Fig 4B)
